Tests used:
Assay in all cases: relative viability (nuclei count vs DMSO), 5 days (fraction); higher = more cells survive
Selisistat + Vorinostat = compound: C1CC(C2=C(C1)C3=C(N2)C=CC(=C3)Cl)C(=O)N [Selisistat] + O=C(CCCCCCC(=O)Nc1ccccc1)NO [Vorinostat] (partner 1 µM)
How it was run: (§1)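 Lung cancer cell lines in 1536-well plates got either a single drug or a fixed anchor-drug dose together with five library-drug doses (not always all listed) in √10 steps, by pin tool, on the day after seeding. Nuclei were counted after 5 days, and relative viability is the treated-to-vehicle ratio of nuclei counts. Values are medians of duplicate plates.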

Serdemetan + Dasatinib = compound: c1ccc2c(CCNc3ccc(Nc4ccncc4)cc3)c[nH]c2c1 [Serdemetan] + Cc1nc(Nc2ncc(C(=O)Nc3c(C)cccc3Cl)s2)cc(N2CCN(CCO)CC2)n1 [Dasatinib] (partner 0.075 µM)
How it was run: as §1

Serdemetan + Decitabine = compound: c1ccc2c(CCNc3ccc(Nc4ccncc4)cc3)c[nH]c2c1 [Serdemetan] + Nc1ncn([C@H]2C[C@H](O)[C@@H](CO)O2)c(=O)n1 [Decitabine] (partner 2 µM)
How it was run: as §1

Serdemetan + Vorinostat = compound: c1ccc2c(CCNc3ccc(Nc4ccncc4)cc3)c[nH]c2c1 [Serdemetan] + O=C(CCCCCCC(=O)Nc1ccccc1)NO [Vorinostat] (partner 1 µM)
How it was run: as §1

Cell Line | relative viability (Selisistat + Vorinostat; first compound 0.4 µM) | relative viability (Selisistat + Vorinostat; first compound 1.265 µM) | relative viability (Selisistat + Vorinostat; first compound 12.65 µM) | relative viability (Selisistat + Vorinostat; first compound 40 µM) | relative viability (Serdemetan + Dasatinib; first compound 0.04 µM) | relative viability (Serdemetan + Dasatinib; first compound 0.1265 µM) | relative viability (Serdemetan + Dasatinib; first compound 0.4 µM) | relative viability (Serdemetan + Dasatinib; first compound 4 µM) | relative viability (Serdemetan + Decitabine; first compound 0.04 µM) | relative viability (Serdemetan + Decitabine; first compound 0.1265 µM) | relative viability (Serdemetan + Decitabine; first compound 0.4 µM) | relative viability (Serdemetan + Decitabine; first compound 1.265 µM) | relative viability (Serdemetan + Decitabine; first compound 4 µM) | relative viability (Serdemetan + Vorinostat; first compound 0.04 µM) | relative viability (Serdemetan + Vorinostat; first compound 0.1265 µM) | relative viability (Serdemetan + Vorinostat; first compound 0.4 µM) | relative viability (Serdemetan + Vorinostat; first compound 1.265 µM) | relative viability (Serdemetan + Vorinostat; first compound 4 µM) | relative viability (Selisistat + Vorinostat; first compound 4 µM) | relative viability (Serdemetan + Dasatinib; first compound 1.265 µM)
NCI-H3122 | 0.977 | 0.919 | 1.09 | 1.34 | 0.827 | 0.792 | 0.919 | 0.782 | 0.451 | 0.444 | 0.469 | 0.322 | 0.368 | 1.05 | 0.969 | 0.928 | 0.587 | 0.877 | – | –
NCI-H1975 | 0.734 | 0.731 | 0.687 | 0.691 | 0.373 | 0.418 | 0.361 | 0.352 | 0.421 | 0.369 | 0.306 | 0.262 | 0.34 | 0.718 | 0.725 | 0.697 | 0.743 | 0.687 | 0.752 | –
NCI-H1944 | 0.563 | 0.526 | 0.547 | 0.593 | 0.201 | 0.212 | 0.218 | 0.164 | 0.493 | 0.409 | 0.384 | 0.269 | 0.295 | 0.485 | 0.628 | 0.635 | 0.339 | 0.294 | 0.51 | 0.131
LU99A | 0.514 | 0.5 | 0.51 | 0.558 | 0.545 | 0.515 | 0.592 | 0.232 | 0.943 | 0.84 | 0.775 | 0.419 | 0.277 | 0.535 | 0.459 | 0.379 | 0.211 | 0.249 | 0.6 | 0.217
SW 1573 | 0.761 | 0.94 | 1.19 | 1.03 | 0.452 | 0.488 | 0.511 | 0.217 | 0.484 | 0.522 | 0.427 | 0.249 | 0.219 | 0.662 | 0.932 | 0.974 | 0.615 | 0.208 | – | 0.396
NCI-H2347 | 0.478 | 0.484 | 0.666 | 0.772 | 0.336 | 0.305 | 0.286 | 0.237 | 0.638 | 0.615 | 0.583 | 0.474 | 0.527 | 0.648 | 0.53 | 0.703 | 0.334 | 0.414 | – | 0.303
NCI-H2009 | 0.774 | 0.786 | 0.741 | 0.793 | 0.315 | 0.326 | 0.31 | 0.221 | 0.373 | 0.37 | 0.431 | 0.328 | 0.345 | 0.583 | 0.695 | 0.805 | 0.638 | 0.558 | 0.77 | 0.25
HCC-15 | 0.912 | 0.931 | 0.878 | 1.07 | 0.676 | 0.608 | 0.562 | 0.49 | 0.614 | 0.599 | 0.56 | 0.511 | 0.341 | 0.848 | 0.83 | 0.704 | 0.681 | 0.456 | 0.875 | 0.541
HCC-44 | 1.08 | 1.09 | 1.24 | 1.24 | – | – | – | – | 0.895 | 0.954 | 0.925 | 0.865 | 0.961 | 1.05 | 1.12 | 1.05 | 1.05 | 0.825 | 1.21 | –
COR-L23 | 0.499 | 0.49 | 0.515 | 0.573 | 0.46 | 0.468 | 0.41 | 0.452 | 0.4 | 0.443 | 0.435 | 0.39 | 0.353 | 0.441 | 0.434 | 0.392 | 0.412 | 0.362 | 0.577 | 0.379
HCC-78 | 0.495 | 0.467 | 0.428 | 0.6 | 0.408 | 0.316 | 0.331 | 0.299 | 0.659 | 0.718 | 0.698 | 0.638 | 0.525 | 0.464 | 0.432 | 0.483 | 0.388 | 0.339 | 0.437 | 0.307
NCI-H727 | 1.31 | 1.15 | 1.2 | 1.16 | 0.36 | 0.42 | 0.445 | 0.25 | 0.849 | 0.797 | 0.828 | 0.965 | 0.826 | 1.3 | 1.12 | 1.12 | 1.28 | 0.849 | 0.658 | 0.251
NCI-H2087 | 0.897 | 0.667 | 0.422 | 0.76 | 0.979 | 0.712 | 0.763 | 0.27 | 0.285 | 0.23 | 0.251 | 0.145 | 0.135 | 0.864 | 0.316 | 0.527 | 0.226 | 0.213 | – | 0.418
BEN | 0.625 | 0.663 | 0.636 | 0.657 | 0.302 | 0.3 | 0.312 | 0.356 | 0.649 | 0.612 | 0.726 | 0.631 | 0.647 | 0.603 | 0.54 | 0.688 | 0.615 | 0.514 | 0.545 | –
NCI-H2228 | 0.724 | 0.5 | 0.725 | 1.08 | 0.44 | 0.473 | 0.485 | 0.184 | – | – | – | – | – | 0.588 | 0.542 | 0.573 | 0.244 | 0.219 | 1 | 0.188
NCI-H1648 | 0.289 | 0.446 | 0.596 | 0.39 | – | – | – | – | – | 0.533 | 0.424 | 0.3 | 0.302 | – | 0.552 | 0.329 | 0.398 | 0.252 | – | –
NCI-H1563 | – | – | – | – | 0.496 | 0.466 | 0.452 | 0.461 | – | – | – | – | – | – | – | – | – | – | – | 0.457
A549 | – | – | – | – | – | – | – | – | 0.263 | 0.245 | 0.261 | 0.291 | 0.198 | – | – | – | – | – | – | –
NCI-H1623 | – | – | – | – | 0.549 | 0.628 | 0.359 | 0.562 | – | – | – | – | – | – | – | – | – | – | – | 0.442
IA-LM | 1.09 | – | 0.926 | 1.22 | – | – | – | – | – | – | – | – | – | 1.05 | 0.964 | 0.9 | 0.81 | 0.419 | – | –
CAL-12T | 0.66 | 0.727 | 0.766 | 0.768 | 0.392 | 0.516 | 0.429 | 0.292 | – | – | – | – | – | 0.857 | 0.82 | 0.748 | 0.922 | 0.627 | 1.05 | 0.456

Reference: the supplement of paper PMC10307832
